SMILES strings stand for the structures. Bounds are passed on as bounds.

In this assay the target is p38α MAP kinase (Homo sapiens, UniProt Q16539). Nature of the assay: Assay to determine the inhibition of p38α MAP kinase (phosphorylation of ATF-2, IC50-values). Type of assay: biochemical. The conditions noted are these: ATF-2 coated microtiter plates, 10 ng activated p38α, 100 μM ATP, 1 h at 37° C.; read-out: IC50, inhibition of the phosphorylation of ATF-2 by p38a MAP kinase. Here is the method: Assay to determine the inhibition of p38α MAP kinase (IC50-values)
Chain of p38α MAP kinase (Q16539 whole entry): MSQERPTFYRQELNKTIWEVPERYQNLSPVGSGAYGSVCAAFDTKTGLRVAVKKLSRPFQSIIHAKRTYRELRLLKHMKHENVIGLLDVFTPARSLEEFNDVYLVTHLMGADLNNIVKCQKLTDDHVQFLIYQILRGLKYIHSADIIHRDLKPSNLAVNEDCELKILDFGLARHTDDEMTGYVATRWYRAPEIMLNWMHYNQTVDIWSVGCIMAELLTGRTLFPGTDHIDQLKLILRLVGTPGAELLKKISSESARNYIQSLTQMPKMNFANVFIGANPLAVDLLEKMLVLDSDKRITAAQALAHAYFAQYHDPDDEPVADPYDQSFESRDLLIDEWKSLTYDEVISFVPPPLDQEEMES
Microtiter plates were coated with the p38 MAP kinase substrate ATF-2 by incubating 50 μl of 20 μg/ml ATF-2 for one hour at 37° C. After the plates were washed three times with water, 50 μl of kinase mixture (=50 mM Tris-HCl, 10 mM MgCl2, 10 mM β-glycerol phosphate, 10 μg/ml BSA, 1 mM DTT, 100 μM ATP, 100 μM […], 10 ng activated p38α) without an with increasing inhibitor concentrations were added into the wells and incubated for one hour at 37° C. The plates were washed three times with water and incubated with an anti-phospho-ATF-2 antibody for one hour at 37°. Thereafter, the plates were again washed three times with water and incubated with a goat, alkaline phosphatase-labeled anti-rabbit IgG, for one hour at 37° C. The plates were washed and incubated with 100 μl of a solution containing the phosphatase substrate 4-nitrophenolphosphate (3 mM 4-NPP, 50 mM NaHCO3, 50 mM MgCl2) for 1.5 hours at 37° C. Formation of 4-nitrophenolate was measured at 405 nm using a microtiter plate reader. Based on the inhibitor-concentration/response curves, IC50-values were determined.
In general, IC50 refers to the concentration that gives 50% inhibition. `COCCn1c([S+](C)[O-])nc(-c2ccc(F)cc2)c1-c1ccnc(NC(=O)C2CCOCC2)c1` (centres unmarked) [Example 33, Tetrahydro-pyran-4-carboxylic acid {4-[5-(4-fluoro-phenyl)-2-methanesulfinyl-3-(2-methoxy-ethyl)-3H-imidazol-4-yl]-pyridin-2-yl}-amide]: the IC50 was less than 1000 nM. With `CCN1CCCC1CNc1cc(-c2c(-c3ccc(F)cc3)nc(SC)n2CCOC)ccn1` (centres unmarked) [Example 2], the IC50 was less than 1000 nM. In the case of `CSc1nc(-c2ccc(F)cc2)c(-c2ccnc(NC3CCC(O)CC3)c2)n1C` (centres unmarked) [Example 15, 4-{4-[5-(4-Fluoro-phenyl)-3-methyl-2-methylsulfanyl-3H-imidazol-4-yl]-pyridin-2-ylamino}-cyclohexanol], the IC50 was less than 1000 nM.

Consider `COCCn1c([S+](C)[O-])nc(-c2ccc(F)cc2)c1-c1ccnc(NC2CCN(Cc3ccccc3)CC2)c1` (centres unmarked) [Example 12, (1-Benzyl-piperidin-4-yl)-{4-[5-(4-fluoro-phenyl)-2-methanesulfinyl-3-(2-methoxy-ethyl)-3H-imidazol-4-yl]-pyridin-2-yl}-amine], for which the concentration for half-maximal inhibition (IC50) lay within 1000 to 10000 nM. As for `COCCn1c(S(C)(=O)=O)nc(-c2ccc(F)cc2)c1-c1ccnc(NC2CCCCC2O)c1` (centres unmarked) [35 (4)], the figure is 1000 to 10000 nM. On to `Cn1c([S+](C)[O-])nc(-c2ccc(F)cc2)c1-c1ccnc(NC2CCCCC2O)c1` (centres unmarked) [Example 24, 2-{4-[5-(4-Fluoro-phenyl)-2-methanesulfinyl-3-methyl-3H-imidazol-4-yl]pyridin-2-ylamino}-cyclohexanol], for which the IC50 was in the range of 1000 to 10000 nM. The same measure for `CSc1nc(-c2ccc(F)cc2)c(-c2ccnc(NC3CCN(Cc4ccccc4)CC3)c2)n1C` [Example 5, (1-Benzyl-piperidin-4-yl)-{4-[5-(4-fluoro-phenyl)-3-methyl-2-methylsulfanyl-3H-imidazol-4-yl]-pyridin-2-yl}-amine]: 1000 to 10000 nM; for `COCCn1c(SC)nc(-c2ccc(F)cc2)c1-c1ccnc(NC2CCCCC2O)c1` (centres unmarked) [Example 35 (2)]: less than 1000 nM. Consider `COCCn1c(SC)nc(-c2ccc(F)cc2)c1-c1ccnc(NCC(C)O)c1` (centres unmarked) [Example 14, 1-{4-[5-(4-Fluoro-phenyl)-3-(2-methoxy-ethyl)-2-methylsulfanyl-3H-imidazol-4-yl]-pyridin-2-ylamino}-propan-2-ol], for which the IC50 is less than 1000 nM. As for `COCCn1c(SC)nc(-c2ccc(F)cc2)c1-c1ccnc(NC(=O)C2CCOCC2)c1` [Example 32, Tetrahydro-pyran-4-carboxylic acid {4-[5-(4-fluoro-phenyl)-3-(2-methoxy-ethyl)-2-methylsulfanyl-3H-imidazol-4-yl]-pyridin-2-yl}-amide], the figure is less than 1000 nM. Turning to `CC(O)CNc1cc(-c2c(-c3ccc(F)cc3)nc([S+](C)[O-])n2C)ccn1` (centres unmarked) [Example 20, 1-{4-[5-(4-Fluoro-phenyl)-2-methanesulfinyl-3-methyl-3H-imidazol-4-yl]-pyridin-2-ylamino}-propan-2-ol], the IC50 is more than 10000 nM.

As for `COCCn1c(SC)nc(-c2ccc(F)cc2)c1-c1ccnc(NC2CC(C)(C)NC(C)(C)C2)c1` [Example 4, {4-[5-(4-Fluoro-phenyl)-3-(2-methoxy-ethyl)-2-methylsulfanyl-3H-imidazol-4-yl]-pyridin-2-yl}-(2,2,6,6-tetramethyl-piperidin-4-yl)-amine], the IC50 is less than 1000 nM. The same measure for `Cn1c([S+](C)[O-])nc(-c2ccc(F)cc2)c1-c1ccnc(NC2CCN(Cc3ccccc3)CC2)c1` (centres unmarked) [Example 11, (1-Benzyl-piperidin-4-yl)-{4-[5-(4-fluoro-phenyl)-2-methanesulfinyl-3-methyl-3H-imidazol-4-yl]-pyridin-2-yl}-amine]: more than 10000 nM; for `COCCn1c([S+](C)[O-])nc(-c2ccc(F)cc2)c1-c1ccnc(NC2CCCCC2O)c1` (centres unmarked) [Example 25, 2-{4-[5-(4-Fluoro-phenyl)-2-methanesulfinyl-3-(2-methoxy-ethyl)-3H-imidazol-4-yl]-pyridin-2-ylamino}-cyclohexanol]: 1000 to 10000 nM; for `CCN1CCCC1CNc1cc(-c2c(-c3ccc(F)cc3)nc(SC)n2C)ccn1` (centres unmarked) [Example 1, (1-Ethyl-pyrrolidin-2-ylmethyl)-{4-[5-(4-fluoro-phenyl)-3-methyl-2-methylsulfanyl-3H-imidazol-4-yl]-pyridin-2-yl}-amine]: more than 10000 nM.

With `Cn1c([S+](C)[O-])nc(-c2ccc(F)cc2)c1-c1ccnc(NC2CC(C)(C)NC(C)(C)C2)c1` (centres unmarked) [Example 9, {4-[5-(4-Fluoro-phenyl)-2-methanesulfinyl-3-methyl-3H-imidazol-4-yl]-pyridin-2-yl}-(2,2,6,6-tetramethyl-piperidin-4-yl)-amine], the concentration for half-maximal inhibition (IC50) is more than 10000 nM. The same measure for `CCN1CCCC1CNc1cc(-c2c(-c3ccc(F)cc3)nc([S+](C)[O-])n2C)ccn1` (centres unmarked) [Example 7, (1-Ethyl-pyrrolidin-2-ylmethyl)-{4-[5-(4-fluoro-phenyl)-2-methanesulfinyl-3-methyl-3H-imidazol-4-yl]-pyridin-2-yl}-amine]: more than 10000 nM; for `CSc1nc(-c2ccc(F)cc2)c(-c2ccnc(NCC(C)O)c2)n1C` (centres unmarked) [Example 13, 1-{4-[5-(4-Fluoro-phenyl)-3-methyl-2-methylsulfanyl-3H-imidazol-4-yl]-pyridin-2-ylamino}-propan-2-ol]: less than 1000 nM.

`COCCn1c([S+](C)[O-])nc(-c2ccc(F)cc2)c1-c1ccnc(NC2CC(C)(C)NC(C)(C)C2)c1` (centres unmarked) [Example 10]: the 50% inhibitory concentration (IC50) is more than 10000 nM. As for `CSc1nc(-c2ccc(F)cc2)c(-c2ccnc(NC3CCCCC3O)c2)n1C` (centres unmarked) [Example 18, 2-{4-[5-(4-Fluoro-phenyl)-3-methyl-2-methylsulfanyl-3H-imidazol-4-yl]-pyridin-2-ylamino}-cyclohexanol], the figure is less than 1000 nM. Regarding `COCCn1c(SC)nc(-c2ccc(F)cc2)c1-c1ccnc(NC2CCCCC2O)c1` (centres unmarked) [Example 19, 2-{4-[5-(4-Fluoro-phenyl)-3-(2-methoxy-ethyl)-2-methylsulfanyl-3H-imidazol-4-yl]-pyridin-2-ylamino}-cyclohexanol], the half-maximal inhibitory concentration (IC50) fell in the range of 1000 to 10000 nM.

Turning to `COCCn1c(SC)nc(-c2ccc(F)cc2)c1-c1ccnc(NC2CCN(Cc3ccccc3)CC2)c1` [Example 6, (1-Benzyl-piperidin-4-yl)-{4-[5-(4-fluoro-phenyl)-3-(2-methoxy-ethyl)-2-methylsulfanyl-3H-imidazol-4-yl]-pyridin-2-yl}-amine], the IC50 is 1000 to 10000 nM. The same measure for `CSc1nc(-c2ccc(F)cc2)c(-c2ccnc(NC3CCC(=O)CC3)c2)n1C` [Example 27, 4-{4-[5-(4-Fluoro-phenyl)-3-methyl-2-methylsulfanyl-3H-imidazol-4-yl]-pyridin-2-ylamino}-cyclohexanone]: 1000 to 10000 nM; for `COCCn1c(SC)nc(-c2ccc(F)cc2)c1-c1ccnc(NCC(C)=O)c1` [Example 26, 1-{4-[5-(4-Fluoro-phenyl)-3-(2-methoxy-ethyl)-2-methylsulfanyl-3H-imidazol-4-yl]-pyridin-2-ylamino}-propan-2-one]: 1000 to 10000 nM; for `COCCn1c(SC)nc(-c2ccc(F)cc2)c1-c1ccnc(NCC2CCCCC2O)c1` (centres unmarked) [35 (1)]: less than 1000 nM. `CSc1nc(-c2ccc(F)cc2)c(-c2ccnc(NC3CC(C)(C)NC(C)(C)C3)c2)n1C` [Example 3]: the IC50 lay in the range of 1000 to 10000 nM.

As for `Cn1c([S+](C)[O-])nc(-c2ccc(F)cc2)c1-c1ccnc(NC2CCC(O)CC2)c1` (centres unmarked) [Example 22, 4-{4-[5-(4-Fluoro-phenyl)-2-methanesulfinyl-3-methyl-3H-imidazol-4-yl]-Pyridin-2-ylamino}-cyclohexanol], the IC50 was less than 1000 nM. As for `COCCn1c([S+](C)[O-])nc(-c2ccc(F)cc2)c1-c1ccnc(NCC(C)O)c1` (centres unmarked) [Example 21, 1-{4-[5-(4-Fluoro-phenyl)-2-methanesulfinyl-3-(2-methoxy-ethyl)-3H-imidazol-4-yl]-pyridin-2-ylamino}-propan-2-ol], the figure is 1000 to 10000 nM. For `CSc1nc(-c2ccc(F)cc2)c(-c2ccnc(NC3CCCCC3=O)c2)n1C` (centres unmarked) [Example 28, 2-{4-[5-(4-Fluoro-phenyl)-3-methyl-2-methylsulfanyl-3H-imidazol-4-yl]-pyridin-2-ylamino}-cyclohexanone], the IC50 is less than 1000 nM. As for `CSc1nc(-c2ccc(F)cc2)c(-c2ccnc(NC3CCCCC3O)c2)n1C` (centres unmarked) [Example 17, 2-{4-[5-(4-Fluoro-phenyl)-3-methyl-2-methylsulfanyl-3H-imidazol-4-yl]-pyridin-2-ylamino}-cyclohexanol], the IC50 was in the range of 1000 to 10000 nM. Turning to `COCCn1c([S+](C)[O-])nc(-c2ccc(F)cc2)c1-c1ccnc(NC2CCC(O)CC2)c1` (centres unmarked) [Example 23, 4-{4-[5-(4-Fluoro-phenyl)-2-methanesulfinyl-3-(2-methoxy-ethyl)-3H-imidazol-4-yl]-pyridin-2-ylamino}-cyclohexanol], the IC50 was less than 1000 nM.

In the case of `COCCn1c(SC)nc(-c2ccc(F)cc2)c1-c1ccnc(NC2CCC(O)CC2)c1` (centres unmarked) [Example 16, 4-{4-[5-(4-Fluoro-phenyl)-3-(2-methoxy-ethyl)-2-methylsulfanyl-3H-imidazol-4-yl]-pyridin-2-ylamino}-cyclohexanol], the IC50 is less than 1000 nM.

These data come from patent US20100069436A1, “IMIDAZOLE COMPOUNDS HAVING AN ANTIINFLAMMATORY EFFECT” (Merckle, priority 2006, published 2010).
